Results on one compound are retold here after US12358904B2, “Inhibitors of TYK2” (Atomwise Inc., priority 2023, dated 2025).

One series relates to IL-12/pSTAT4. In words: IL-12 induced pSTAT4 assay in NK-92 cells. The format is cell-based. The settings on record: Homo sapiens, NK92, IL-12 stimulation, read-out: Cellular potency (IL-12/pSTAT4). Put shortly: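 Overnight-starved NK-92 cells (20K/well) pre-incubated with compounds (1000 to 0.05 nM final) 30 min at 37 °C, then stimulated with IL-12 (10 ng/ml) for 30 min at 37 °C. Lysates assayed for pSTAT4 (Tyr693) by MSD electrochemiluminescence.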

A short description of series [1]: Brain exposure pharmacokinetic study in mice. The class given is in vivo, mouse. The settings on record: male C57BL/6 mice, oral gavage 5 mg/kg, plasma. How it is done: The brain exposure of 18 was evaluated in male C57BL/6 mice after oral gavage administration at 5 mg/kg. The formulation was 10% DMSO+40% PEG400 in saline. Mice were provided free access to food and water without fasting. Terminal sample collection of plasma and brain tissue were collected at […], 0.25, 0.5, 1, 2, and 4 hours post-dose with n=3 at each timepoint.
For both rat and mouse studies, brain tissue was washed with 3 volumes of saline prior to homogenization. Brain tissue was homogenized with 3 volumes (v/w) of phosphate buffered saline. Plasma, brain homogenate, and CSF samples (rat only) were analyzed by LC-MS/MS and the concentration of test compound at each time point was determined by linear regression.
Pharmacokinetic parameters were calculated from the plasma, brain, and CSF concentrations by non-compartmental modeling using WinNonlin 8.2.

For another series, the system named is GM-CSF/pSTAT5. In words: GM-CSF induced pSTAT5 assay in CellSensor irf1-bla TF-1 cells. The format is cell-based. The settings on record: Homo sapiens, GM-CSF 1 ng/mL, read-out: Cellular selectivity (GM-CSF induced pSTAT5).
A further series addresses T1, TYK2-JH2 (Homo sapiens, UniProt P29597).
T1 construct: TYK JH2 enzyme mix (ChemPartnec CP20210818A-BV); purchased ChemPartner CP20210818A-BV
The series is described as follows: TYK2-JH2 HTRF binding assay (ligand efficiency). The conditions noted are these: calculated from IC50 of the TYK-JH2 binding assay (Equation 1). The method, boiled down:
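His-tagged TYK2 JH2 (0.5 nM) preincubated 10 min at RT with compound (0.1–0.000005 μM) in 20 mM HEPES pH 7.5, 10 mM MgCl2, 0.01% Triton X-100, 1 mM DTT; then 35 nM tracer plus anti-6HIS Tb cryptate, 60 min RT. TR-FRET read (Ex340/Em495/520); IC50 converted to ligand efficiency.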

The subject of a further series is IL-6/pSTAT3. The series is described as follows: IL-6 induced pSTAT3 assay in TF-1 cells. The class given is cell-based. The conditions noted are these: Homo sapiens, read-out: Cellular selectivity (IL-6/pSTAT3).

T1 sequence (P29597 589-875 limits assumed): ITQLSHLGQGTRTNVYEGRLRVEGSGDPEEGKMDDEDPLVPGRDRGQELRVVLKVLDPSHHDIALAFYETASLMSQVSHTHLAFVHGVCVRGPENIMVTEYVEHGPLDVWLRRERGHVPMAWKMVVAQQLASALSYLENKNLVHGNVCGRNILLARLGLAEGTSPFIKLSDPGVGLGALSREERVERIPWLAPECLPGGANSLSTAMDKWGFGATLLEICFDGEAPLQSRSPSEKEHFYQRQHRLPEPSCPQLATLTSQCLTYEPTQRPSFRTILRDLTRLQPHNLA

For the compound `Cc1cccc(Nc2cc(Nc3ncccc3S(C)(=O)=O)ncn2)n1` [Compound 18, N^4-(6-methylpyridin-2-yl)-N^6-(3-(methylsulfonyl)99yridine-2-yl) pyrimidine-4,6-diamine], the IC50 in the series on IL-12/pSTAT4 is less than 0.1 µM; with GM-CSF/pSTAT5 it was greater than 10 µM; with IL-6/pSTAT3 it was less than 4 µM. For the same compound, in series [1], the “Brain Kpu, u” value was “††† (††† >0.2u)”. For the same compound, on TYK2-JH2, the “Ligand Efficiency” value is on record as “††† (†††: >0.39)”.
